Experimental data published in patent publication US11357750B2, “Cysteamine prodrugs” (Children's Hospital Medical Center, priority 2017, dated 2022).
Where a name gives a salt, the structure may show the parent alone. One block for each compound: values may come before it.

Columns and labels:
[1] = Pharmacokinetic (PK) study of cysteamine in plasma after oral dosing in rats, blood sampling from portal vein and heart (HPV protocol); type: in vivo, rat
Procedure: Absorption and hepatic extraction information after oral administration and blood sampling from portal vein and heart (HPV protocol) were evaluated.
Blood samples were collected at intervals up to 24 h after dose administration (n=3 animals per each time point).
Sample Collection and Handling: After PO administration, blood samples were collected under deep Isofluorane anesthesia from portal vein and heart of each rat (3 rats per each time point). Blood was collected into potassium EDTA tubes at each of the following time points post-dose (actual times will be recorded): 0.25, 0.5, 1, 2, 4, 6, 8, 12 and 24 hours after dosing. All blood samples were thoroughly, but gently mixed following collection, placed on ice and centrifuged as soon as possible (2000 g for 5 min at 0° C.) to prepare plasma. Duplicate 50 μL aliquots of plasma samples were transferred in micronic tubes.
Plasma Sample Preparation: • 1. Calibration standards (CS) and quality control (QC) plasma samples were prepared by adding 5 μL WS to 45 μL of fresh plasma into micronic tubes using Tecan. • 2. Pseudo QC were prepared by adding 5 μL WSQC to 45 μL of water into micronic tubes using Tecan. • 3. CS, QC, pseudo QC and blank were diluted with 200 μL of KCl solution (1.15%). • 4. Plasma collection was performed by laboratory automation system (LAS). 50 μL whole plasma was transferred into micronic tubes containing 200 μL of KCl solution (1.15%). • 5. All samples were added […] with 20 μL of glutathione ethyl ester as internal standard (0.01 mg/mL in water) and 100 μL of Ellman's reagent (10 mM in water). • 6. […]
Plasma sample analysis: Samples were assayed for cysteamine using a method based on protein precipitation followed by HPLC/MS-MS analysis. Study samples were analyzed in discrete batches together with calibration standards (CS), used to construct calibration curves and blank samples (including also double blanks), used to assess specificity. […] The presence of prodrug and its products were monitored but not quantified in both portal and systemic plasma. […]

[2] = cited from earlier work
[3] = test system: intracellular cystine (circulating white blood cells); details: taken regularly; measured in circulating white blood cells; cited from earlier work

Fa % (fraction absorbed) ([1]; male, CD, rat, in vivo, po): 16.1%
SMILES: NCCS [Cysteamine Hydrochloride, cysteamine hydrochloride]

SMILES: Cl.NCCS.OCC(O)CO [Glycerol Cysteamine Hydrochloride, glycerol cysteamine hydrochloride]
Release of cysteamine hydrochloride from the glycerol prodrug moiety (conclusion) ([1]; rats PO, gastrointestinal (GI) tract): fully separated from the glycerol prodrug moiety in the gastrointestinal (GI) tract
Cysteamine levels in portal plasma after prodrug administration ([1]; rats PO, versus cysteamine hydrochloride administration): comparable to those observed after cysteamine hydrochloride administration

SMILES: NCCS [cysteamine, 2-aminoethane-1-thiol]
Duration of activity (short half-life) ([2]; in vivo): 5 to 6 h
Estimated bioavailability ([2]; oral administration, extensive first pass metabolism): 10-30%
Depletion of intracellular cystine [3]: up to 90%
